# Like-named read-outs stand apart in the source and are kept apart here.
# Assays:
# [1] = Partition coefficients in DOP/M9 (glucose) biphasic system; type: physicochemical
# [2] = system: E. coli; assay: Toxic / inhibitory effect of substrate, products and organic phase on biomass growth of the cells; conditions: in the aqueous phase
# [3] = system: E. coli
# [4] = system: E coli; conditions: at a pH of 7; cited from earlier work
# [5] = concentration in organic phase (dioctyl phthalate) relative to aqueous phase (M9 medium, glucose), triplicate
Compound,"Partition coefficient [1, 5]",concentration which inhibits biomass growth [2] [mM],also measured
"Cc1ccc(C=O)cc1C [3,4-Dimethylbenzaldehyde, 3,4-dimethylbenzaldehyde]",906 ± 20,1812,–
"Cc1ccc(C(=O)O)cc1C [3,4-Dimethylbenzoic acid, 3,4-dimethylbenzoic acid]",–,–,Partition coefficient [1]: 0.188 ± 0.005; concentration which inhibits biomass growth [3]: 16 mM
"Cc1ccc(CO)cc1C [3,4-Dimethylbenzyl alcohol, 3,4-dimethylbenzyl alcohol]",50 ± 3,100,concentration above which it has a toxic effect on the cells [2]: > 100 mM
CC(=O)O [acetic acid],–,–,concentration with inhibitory effect on cell growth [4]: 5 g/L
pseudocumene (trimethylbenzene),24300 ± 1500,–,concentration above which it is toxic to the cells [2]: 15-25%

# — patent US7368267B2, “Method for the oxidation of aromatic compounds” (BASF Aktiengesellschaft, priority 2001, dated 2008)
